Results taken from patent publication US10947499B2, “Selection of stem cell clones with defined differentiation capabilities” (Research Development Foundation, priority 2009, dated 2021).

What was measured:
human ES cells = assay: Seeding of individualized human ES cells in 96-well plates; type: cell-based; settings: similar to HA-100 but at 10-fold lower concentration
[1] = test system: Rho-associated kinase (ROCK); settings: cited from earlier work

Structure (SMILES): Cc1cncc2cccc(S(=O)(=O)N3CCCNC[C@@H]3C)c12 [Clone H-1152, (S)-(+)-2-Methyl-1-[(4-methyl-5-isoquinolinyl)sulfonyl]homopiperazine]
- seeding of individualized human ES cells (human ES cells): very efficient seeding
- potency relative to HA-100 [1]: approximately ten-fold
